“And” between values parts separate entries of the source, which are not always exact repeats. Identical values can stand only once. Results filed as inconclusive are left out.
Test system: Nude mice, LX-1 lung xenograft intrarenal, tumor weight T/C
Assay: NCI In Vivo Anticancer Drug Screen. Data for tumor model Human Lung LX-1 Xenograft (intrarenal inoculation) in NU/NU BALB/C (nude) mice
Settings: endpoint: mean tumor weight change, higher = larger tumour
Description: The antitumor activity of compounds was measured in mice bearing transplantable tumors. Survival or tumor size were measured and the results are expressed as the measurement made in the treated group (T) divided by the measurement made in the vehicle treated control group (C). The tumor model used in this assay is Human Lung LX-1 Xenograft (intrarenal inoculation) in NU/NU BALB/C (nude) mice

[1] = dose: 37.5 mg/kg/injection, schedule: Q04DX003 (sc), vehicle: saline
[2] = dose: 75.0 mg/kg/injection, schedule: Q04DX003 (sc), vehicle: saline
[3] = dose: 150.0 mg/kg/injection, schedule: Q04DX003 (sc), vehicle: saline
[4] = dose: 18.75 mg/kg/injection, schedule: Q04DX003 (sc), vehicle: saline
[5] = dose: 400.0 mg/kg/injection, schedule: Q01DX010 (sc), vehicle: saline with Tween-80
[6] = dose: 50.0 mg/kg/injection, schedule: Q01DX010 (sc), vehicle: Klucel (hydroxypropylcellulose) (HPC)
[7] = dose: 100.0 mg/kg/injection, schedule: Q01DX010 (sc), vehicle: Klucel (hydroxypropylcellulose) (HPC)
[8] = dose: 200.0 mg/kg/injection, schedule: Q01DX010 (sc), vehicle: Klucel (hydroxypropylcellulose) (HPC)
[9] = dose: 5.0 mg/kg/injection, schedule: Q04DX003 (sc), vehicle: saline
[10] = dose: 200.0 mg/kg/injection, schedule: Q01DX010 (sc), vehicle: saline
[11] = dose: 400.0 mg/kg/injection, schedule: Q01DX010 (sc), vehicle: saline
[12] = dose: 300.0 mg/kg/injection, schedule: Q04DX003 (sc), vehicle: saline with Tween-80
[13] = dose: 600.0 mg/kg/injection, schedule: Q04DX003 (sc), vehicle: saline with Tween-80
[14] = dose: 1200.0 mg/kg/injection, schedule: Q04DX003 (sc), vehicle: saline with Tween-80
[15] = dose: 300.0 mg/kg/injection, schedule: Q04DX003 (sc), vehicle: water
[16] = dose: 100.0 mg/kg/injection, schedule: Q04DX003 (sc), vehicle: saline
[17] = dose: 200.0 mg/kg/injection, schedule: Q04DX003 (sc), vehicle: saline
[18] = dose: 400.0 mg/kg/injection, schedule: Q04DX003 (sc), vehicle: saline

For O=[N+]([O-])O.O=[N+]([O-])O.[NH-]C1CCCCC1[NH-].[Pt+2] (stereo not drawn), the T/C (dose: 0.5 mg/kg/injection, schedule: Q01DX010 (sc), vehicle: dextrose) was 76 % of control and the T/C (dose: 1.0 mg/kg/injection, schedule: Q01DX010 (sc), vehicle: dextrose) was 80 % of control.
For CN(CCN(C)C(=O)CCOS(C)(=O)=O)C(=O)CCOS(C)(=O)=O, the T/C [1] was 90 % of control, the T/C [2] was 91 % of control and the T/C [3] was 86 % of control. The T/C (dose: 300.0 mg/kg/injection, schedule: Q04DX003 (sc), vehicle: saline) was 36 % of control.
In the case of c1ccc2c(c1)[As]=c1ccccc1=[As]2 (stereo not drawn), the T/C [4] is reported as 58 % of control, the T/C [1] is reported as 46 % of control and the T/C [2] is reported as 50 % of control. For the same compound, the T/C [3] was 40 % of control.
With Cn1c(=O)[nH]c2nncnc2c1=O the T/C (dose: 62.5 mg/kg/injection, schedule: Q04DX003 (sc), vehicle: water) was 110 % of control.
CC1(CO)C(O)CCC2(C)C1CCC1CC3CC12CCC3(O)CO (stereo not drawn) was tested, and the T/C (dose: 50.0 mg/kg/injection, schedule: Q01DX010 (sc), vehicle: saline with Tween-80) was 86 % of control and the T/C [5] was 34 % of control.
For COc1cc2cc(c1Cl)N(C)C(=O)C[C@H](OC(=O)[C@H](C)N(C)C(C)=O)[C@]1(C)O[C@H]1[C@H](C)[C@@H]1C[C@@](O)(NC(=O)O1)[C@H](OC)C=C/C=C(\C)C2, the T/C [6] was 72 % of control, the T/C [7] was 3 % of control and the T/C [8] was 1 % of control. The T/C (dose: 12.5 micrograms/kg/injection, schedule: Q01DX010 (sc), vehicle: Klucel (hydroxypropylcellulose) (HPC)) was 224 % of control, the T/C (dose: 25.0 micrograms/kg/injection, schedule: Q01DX010 (sc), vehicle: Klucel (hydroxypropylcellulose) (HPC)) was 77 % of control and the T/C (dose: 50.0 micrograms/kg/injection, schedule: Q01DX010 (sc), vehicle: Klucel (hydroxypropylcellulose) (HPC)) was 73 % of control. For the same compound, the T/C (dose: 100.0 micrograms/kg/injection, schedule: Q01DX010 (sc), vehicle: Klucel (hydroxypropylcellulose) (HPC)) was 32 % of control and the T/C (dose: 200.0 micrograms/kg/injection, schedule: Q01DX010 (sc), vehicle: Klucel (hydroxypropylcellulose) (HPC)) was 2 % of control.
CC1CN1C(=O)NCCCCCCNC(=O)N1CC1C (stereo not drawn) was tested, and the T/C (dose: 20.0 mg/kg/injection, schedule: Q04DX003 (sc), vehicle: Klucel (hydroxypropylcellulose) (HPC)) was 68 % of control.
CC[C@@]1(O)C(=O)OCc2c1cc1n(c2=O)Cc2cc3ccccc3nc2-1 was tested, and the T/C (dose: 5.0 mg/kg/injection, schedule: Q04DX003 (sc), vehicle: saline with Tween-80) was 15 % of control, the T/C (dose: 10.0 mg/kg/injection, schedule: Q04DX003 (sc), vehicle: saline with Tween-80) was 5 % of control and 12 % of control and the T/C (dose: 20.0 mg/kg/injection, schedule: Q04DX003 (sc), vehicle: saline with Tween-80) was 3 % of control and 4 % of control.
For C/C=C(\C)c1cc(=O)c2c(C)cc3c(c2o1)C(=O)c1c(O)c(C2CC(C)(N(C)C)C(OC(C)=O)C(C)O2)cc(C2CC(N(C)C)C(O)C(C)O2)c1C3=O (stereo not drawn), the T/C (dose: 0.63 mg/kg/injection, schedule: Q04DX003 (sc), vehicle: saline) was 68 % of control, the T/C (dose: 1.25 mg/kg/injection, schedule: Q04DX003 (sc), vehicle: saline) was 48 % of control and the T/C (dose: 2.5 mg/kg/injection, schedule: Q04DX003 (sc), vehicle: saline) was 45 % of control. The T/C [9] was 51 % of control.
Cc1ccoc1 was tested, and the T/C (dose: 50.0 mg/kg/injection, schedule: Q01DX010 (ip), vehicle: saline with Tween-80) was 109 % of control, the T/C (dose: 100.0 mg/kg/injection, schedule: Q01DX010 (ip), vehicle: saline with Tween-80) was 93 % of control and the T/C (dose: 200.0 mg/kg/injection, schedule: Q01DX010 (ip), vehicle: saline with Tween-80) was 163 % of control. The T/C (dose: 400.0 mg/kg/injection, schedule: Q01DX010 (ip), vehicle: saline with Tween-80) was 80 % of control.
N/C=N/O was tested, and the T/C [10] was 180 % of control and the T/C [11] was 161 % of control.
Nc1nc(=S)c2ncn(C3CC(O)C(CO)O3)c2[nH]1 (stereo not drawn) was tested, and the T/C [6] was 152 % of control, the T/C [7] was 118 % of control and the T/C [8] was 73 % of control. The T/C (dose: 400.0 mg/kg/injection, schedule: Q01DX010 (sc), vehicle: Klucel (hydroxypropylcellulose) (HPC)) was 107 % of control.
C=COC(=O)C(Cc1ccccc1)NC(=O)OCc1ccccc1 (stereo not drawn) was tested, and the T/C [12] was 114 % of control, the T/C [13] was 118 % of control and the T/C [14] was 104 % of control.
For N=C(N)c1ccc(/C=C/c2ccc(C(=N)N)cc2O)cc1, the T/C (dose: 37.5 mg/kg/injection, schedule: Q04DX003 (sc), vehicle: water) was 86 % of control, the T/C (dose: 75.0 mg/kg/injection, schedule: Q04DX003 (sc), vehicle: water) was 56 % of control and the T/C (dose: 150.0 mg/kg/injection, schedule: Q04DX003 (sc), vehicle: water) was 101 % of control. For the same compound, the T/C [15] was 43 % of control.
For CCCC(=O)Oc1ccc(/C=N/NC(N)=S)nc1, the T/C (dose: 100.0 mg/kg/injection, schedule: Q01DX010 (sc), vehicle: saline with Tween-80) was 66 % of control, the T/C (dose: 200.0 mg/kg/injection, schedule: Q01DX010 (sc), vehicle: saline with Tween-80) was 42 % of control and the T/C [5] was 19 % of control.
For C[C@@H]1C[C@@H]([C@H](O)CC2CC(=O)NC(=O)C2)C(=O)[C@@H](C)C1, the T/C [4] was 94 % of control, the T/C [1] was 114 % of control and the T/C [2] was 118 % of control. For the same compound, the T/C [3] was 110 % of control.
With CC[C@]1(O)C[C@H]2CN(CCc3c([nH]c4ccccc34)[C@@](C(=O)OC)(c3cc4c(cc3OC)N(C=O)[C@H]3[C@@](O)(C(=O)OC)[C@H](OC(C)=O)[C@]5(CC)C=CCN6CC[C@]43[C@@H]65)C2)C1 the T/C (dose: 0.13 mg/kg/injection, schedule: Q01DX010 (sc), vehicle: saline) was 69 % of control, the T/C (dose: 0.25 mg/kg/injection, schedule: Q01DX010 (sc), vehicle: saline) was 20 % of control and the T/C (dose: 0.5 mg/kg/injection, schedule: Q01DX010 (sc), vehicle: saline) was 1 % of control.
Nc1ncn(C2OC(CO)C(O)C2O)c(=O)n1 (stereo not drawn) was tested, and the T/C [9] was 47 % of control, the T/C (dose: 10.0 mg/kg/injection, schedule: Q04DX003 (sc), vehicle: saline) was 39 % of control and the T/C [16] was 34 % of control. The T/C [17] was 18 % of control and 28 % of control, the T/C [18] was 15 % of control and 32 % of control and the T/C (dose: 1600.0 mg/kg/injection, schedule: Q04DX003 (sc), vehicle: saline) was -72 % of control.
With CC(=O)Oc1[nH]c(=O)c2cccc3c2c1CCC3 the T/C [12] was 62 % of control, the T/C [13] was 68 % of control and the T/C [14] was 90 % of control. For the same compound, the T/C (dose: 2400.0 mg/kg/injection, schedule: Q04DX003 (sc), vehicle: saline with Tween-80) was 83 % of control.
In the case of CCC(C(=O)O)C(=O)O.[NH-]CC1CCCC[N-]1.[Pt+2], the T/C [16] is reported as 114 % of control, the T/C [17] is reported as 90 % of control and the T/C [18] is reported as 60 % of control.
CC(C)CCCCCCCCCCCCC(=O)NCC(=O)NC1C(C)OC(Nc2ncnc3nc[nH]c23)C(O)C1O (stereo not drawn) was tested, and the T/C (dose: 2.0 mg/kg/injection, schedule: Q01DX010 (sc), vehicle: saline with Tween-80) was 69 % of control, the T/C (dose: 4.0 mg/kg/injection, schedule: Q01DX010 (sc), vehicle: saline with Tween-80) was 40 % of control and the T/C (dose: 8.0 mg/kg/injection, schedule: Q01DX010 (sc), vehicle: saline with Tween-80) was 32 % of control. The T/C (dose: 16.0 mg/kg/injection, schedule: Q01DX010 (sc), vehicle: saline with Tween-80) was 17 % of control.
In the case of NC(CCl)=NCC12CC3CC(CC(C3)C1)C2, the T/C (dose: 18.75 mg/kg/injection, schedule: Q04DX003 (sc), vehicle: Klucel (hydroxypropylcellulose) (HPC)) is reported as 157 % of control and the T/C (dose: 75.0 mg/kg/injection, schedule: Q04DX003 (sc), vehicle: Klucel (hydroxypropylcellulose) (HPC)) is reported as 110 % of control.
With OC1OC2COC(c3ccccc3)OC2C(O)C1O (stereo not drawn) the T/C [15] was 101 % of control, the T/C (dose: 600.0 mg/kg/injection, schedule: Q04DX003 (sc), vehicle: water) was 117 % of control and the T/C (dose: 1200.0 mg/kg/injection, schedule: Q04DX003 (sc), vehicle: water) was 105 % of control. The T/C (dose: 2400.0 mg/kg/injection, schedule: Q04DX003 (sc), vehicle: water) was 90 % of control.
In the case of Cc1cc2nc3[nH]c4ccccc4c3nc2cc1C, the T/C (dose: 100.0 mg/kg/injection, schedule: Q01DX010 (sc), vehicle: saline) is reported as 88 % of control, the T/C [10] is reported as 190 % of control and the T/C [11] is reported as 92 % of control. The T/C (dose: 800.0 mg/kg/injection, schedule: Q01DX010 (sc), vehicle: saline) was 97 % of control.

Reference: PubChem BioAssay AID266 (DTP/NCI, 2004)
